Data published in patent US20240336654A1, “ANTIMICROBIAL PEPTIDOMIMETICS” (SPEXIS AG, priority 2021, published 2024).
Where a SMILES comes first, the peptide text is derived from it. Bridges are numbered along the chain shown (N, C = ends). [ ]: non-standard residue; d: D form. Hyp = O=C(O)[C@@H]1C[C@@H](O)CN1; Pen = CC(C)(S)[C@H](N)C(=O)O; dDab = NCC[C@@H](N)C(=O)O; Dab = NCC[C@H](N)C(=O)O

Assays:
Type in all cases: cell-based
[1] = system: human red blood cells (hRBC); details: red cells of human, 1 h, 200 μg/mL
Description: Lyophilized peptides were weighed on a Microbalance (Mettler MT5) and dissolved in sterile water to a final concentration of 1 mg/mL. Stock solutions were kept at +4° C., light protected. The peptides were tested for their hemolytic activity against human red blood cells (hRBC). Fresh hRBC were washed three times with phosphate buffered saline (PBS) and centrifuged for 5 min at 3000×g. Compounds (200 μg/mL) were incubated with 20% hRBC (v/v) for 1 h at 37° C. and shaking at 300 rpm. A value of 0% and 100% cell lyses, respectively, was determined by incubation of hRBC in the presence of PBS and 2.5% Triton X-100 in H2O, respectively. The samples were centrifuged, the supernatants were 8-fold diluted in PBS buffer and the optical densities (OD) were measured at 540 nm. The 100% lyses value (OD540H2O) gave an OD540 of approximately 0.5-1.0. Percent hemolysis was calculated as follows: (OD540peptide/OD540H2O)×100%.

[2] = system: Escherichia coli ATCC 25922; details: ATCC 25922
Description: (§1) Lyophilized peptides were weighed on a Microbalance (Mettler MT5) and dissolved in sterile water to a final concentration of 1 mg/mL. Stock solutions were kept at +4° C., light protected.
(§2) The selective antimicrobial activities of the peptides were determined in 96-well plates (Greiner, polystyrene) by the standard CLSI broth microdilution method (Clinical and Laboratory Standards Institute. Methods for Dilution Antimicrobial Susceptibility Tests for Bacteria That Grow Aerobically; Approved Standard-Ninth Edition. CLSI document M07-A9 (ISBN 1-56238-783-9 [Print]; ISBN 1-56238-784-7 [Electronic]). Clinical and Laboratory Standards Institute, 950 West Valley Road, Suite 2500, Wayne, Pennsylvania 19087, USA, 2012) with slight modifications.
(§3) Colonies of the microorganisms were diluted in saline (0.85%, NaCl) and adjusted using a McFarland reader (bioMérieux SA, Marcy-l'Etoile, France) to 0.5 McFarland standard. Subsequently, the bacterial suspension was diluted in Mueller-Hinton II (MHII, cation adjusted) broth to give approximately 5×10^5 colony forming units (CFU/mL).
(§4) Inocula of the microorganisms were diluted into Mueller-Hinton II (MH, cation adjusted) broth and compared with a 0.5 McFarland standard to give appr. 10^6 colony forming units (CFU)/mL. Aliquots (90 μl) of inoculate were added to 10 μl of water+P-80 (Polysorbate 80, 0.002% final concentration) containing the peptide in serial two-fold dilutions at 10 fold final concentration. The following microorganisms were used to determine antibiotic selectivity of the peptides: Escherichia coli ATCC 25922, Escherichia coli MCR-1 Af 45 and Klebsiella pneumoniae SSI3010. Antimicrobial activities of the peptides were expressed as the minimal inhibitory concentration (MIC) in μg/mL at which no visible growth was observed after 18-20 hours of incubation at 35° C.

[3] = system: Klebsiella pneumoniae SSI3010; details: SSI3010
Description: as §1, §2, §3, §4

[4] = system: Escherichia coli MCR-1 Af 45; details: MCR-1 Af 45
Description: as §1, §2, §3, §4

Structure (SMILES) | Hemolysis at 0.2 g/L [1] [%] | Escherichia coli ATCC 25922 MIC [2] [µg/mL] | Klebsiella pneumoniae SSI3010 MIC [3] [µg/mL] | Escherichia coli MCR-1 Af45 MIC [4] [µg/mL]
CC[C@H](C)[C@H](NC(=O)[C@@H]1C[C@@H](O)CN1C(=O)[C@@H](N)C(C)C)C(=O)N[C@@H]1C(=O)N[C@@H](CO)C(=O)N[C@@H](CO)C(=O)N[C@@H](CC(N)=O)C(=O)N[C@@H](CCCNC(=N)N)C(=O)N[C@@H](CCN)C(=O)N[C@@H]([C@@H](C)O)C(=O)N[C@H](CCN)C(=O)N[C@@H](CCCCN)C(=O)N[C@@H](CCN)C(=O)N[C@@H](CCN)C(=O)N[C@H](C(=O)N[C@@H](Cc2ccc(O)cc2)C(=O)O)CSSC1(C)C [Example 14, Val-Hyp-Ile-Pen-Ser-Ser-Asn-Arg-Dab-Thr-^DDab-Lys-Dab-Dab-Cys-Tyr] (H-V[Hyp]I[Pen]SSNR[Dab]T[dDab]K[Dab][Dab]CY-OH; disulfide 4-15) | <1 | 0.5 | 0.5 | 0.25
CC[C@H](C)[C@H](NC(=O)[C@@H]1C[C@@H](O)CN1C(=O)[C@@H](N)C(C)C)C(=O)N[C@@H]1C(=O)N[C@@H](Cc2ccc(O)cc2)C(=O)N[C@@H]([C@@H](C)O)C(=O)N[C@@H](CC(N)=O)C(=O)N[C@@H](CCCNC(=N)N)C(=O)N[C@@H](CCN)C(=O)N[C@@H]([C@@H](C)O)C(=O)N[C@H](CCN)C(=O)N[C@@H](CCCCN)C(=O)N[C@@H](CCN)C(=O)N[C@@H](CCN)C(=O)N[C@H](C(=O)N[C@@H](Cc2ccc(O)cc2)C(=O)O)CSSC1(C)C [Example 15, Val-Hyp-Ile-Pen-Tyr-Thr-Asn-Arg-Dab-Thr-^DDab-Lys-Dab-Dab-Cys-Tyr] (H-V[Hyp]I[Pen]YTNR[Dab]T[dDab]K[Dab][Dab]CY-OH; disulfide 4-15) | <1 | 0.0625 | 0.125 | 0.0625
CC[C@H](C)[C@@H]1NC(=O)[C@H](Cc2ccc(O)cc2)NC(=O)[C@@H](NC(=O)[C@@H](NC(=O)[C@@H]2C[C@@H](O)CN2C(=O)[C@@H](N)C(C)C)[C@@H](C)CC)C(C)(C)SSC[C@@H](C(=O)N[C@@H](Cc2ccc(O)cc2)C(=O)O)NC(=O)[C@H](CCN)NC(=O)[C@H](CCCNC(=N)N)NC(=O)[C@H](CCCCN)NC(=O)[C@@H](CCN)NC(=O)[C@H]([C@@H](C)O)NC(=O)[C@H](CCN)NC(=O)[C@H](CCCNC(=N)N)NC(=O)[C@H](CC(N)=O)NC1=O [Example 16, Val-Hyp-Ile-Pen-Tyr-Ile-Asn-Arg-Dab-Thr-^DDab-Lys-Arg-Dab-Cys-Tyr] (H-V[Hyp]I[Pen]YINR[Dab]T[dDab]KR[Dab]CY-OH; disulfide 4-15) | <1 | 0.375 | 0.5 | 0.25
CC[C@H](C)[C@H](NC(=O)[C@@H]1C[C@@H](O)CN1C(=O)[C@@H](N)C(C)C)C(=O)N[C@@H]1C(=O)N[C@@H](Cc2ccc(O)cc2)C(=O)N[C@@H](CCC(=O)O)C(=O)N[C@@H](CC(N)=O)C(=O)N[C@@H](CCCNC(=N)N)C(=O)N[C@@H](CCN)C(=O)N[C@@H]([C@@H](C)O)C(=O)N[C@H](CCN)C(=O)N[C@@H](CCCCN)C(=O)N[C@@H](CCN)C(=O)N[C@@H](CCN)C(=O)N[C@H](C(=O)N[C@@H](Cc2ccc(O)cc2)C(=O)O)CSSC1(C)C [Example 17, Val-Hyp-Ile-Pen-Tyr-Glu-Asn-Arg-Dab-Thr-^DDab-Lys-Dab-Dab-Cys-Tyr] (H-V[Hyp]I[Pen]YENR[Dab]T[dDab]K[Dab][Dab]CY-OH; disulfide 4-15) | <1 | 0.5 | 0.5 | 0.25
CC[C@H](C)[C@H](NC(=O)[C@@H]1C[C@@H](O)CN1C(=O)[C@@H](N)C(C)C)C(=O)N[C@@H]1C(=O)N[C@@H](Cc2ccc(O)cc2)C(=O)N[C@@H](CC(N)=O)C(=O)N[C@@H](CC(N)=O)C(=O)N[C@@H](CCCNC(=N)N)C(=O)N[C@@H](CCN)C(=O)N[C@@H]([C@@H](C)O)C(=O)N[C@H](CCN)C(=O)N[C@@H](CCCCN)C(=O)N[C@@H](CCN)C(=O)N[C@@H](CCN)C(=O)N[C@H](C(=O)N[C@@H](Cc2ccc(O)cc2)C(=O)O)CSSC1(C)C [Example 18, Val-Hyp-Ile-Pen-Tyr-Asn-Asn-Arg-Dab-Thr-^DDab-Lys-Dab-Dab-Cys-Tyr] (H-V[Hyp]I[Pen]YNNR[Dab]T[dDab]K[Dab][Dab]CY-OH; disulfide 4-15) | <1 | 0.25 | 0.25 | 0.125
CC[C@H](C)[C@H](NC(=O)[C@@H]1C[C@@H](O)CN1C(=O)[C@@H](N)C(C)C)C(=O)N[C@@H]1C(=O)N[C@@H](Cc2ccc(O)cc2)C(=O)N[C@@H]([C@@H](C)O)C(=O)N[C@@H](CC(N)=O)C(=O)N[C@@H](CCCNC(=N)N)C(=O)N[C@@H](CCN)C(=O)N[C@@H](CC(N)=O)C(=O)N[C@H](CCN)C(=O)N[C@@H](CCCCN)C(=O)N[C@@H](CCN)C(=O)N[C@@H](CCN)C(=O)N[C@H](C(=O)N[C@@H](Cc2ccc(O)cc2)C(=O)O)CSSC1(C)C [Example 19, Val-Hyp-Ile-Pen-Tyr-Thr-Asn-Arg-Dab-Asn-^DDab-Lys-Dab-Dab-Cys-Tyr] (H-V[Hyp]I[Pen]YTNR[Dab]N[dDab]K[Dab][Dab]CY-OH; disulfide 4-15) | <1 | 0.125 | 0.25 | 0.125
CC[C@H](C)[C@H](NC(=O)[C@@H]1C[C@@H](O)CN1C(=O)[C@@H](N)C(C)C)C(=O)N[C@@H]1C(=O)N[C@@H](Cc2ccc(O)cc2)C(=O)N[C@@H](CO)C(=O)N[C@@H](C)C(=O)N[C@@H](CCCNC(=N)N)C(=O)N[C@@H](CCN)C(=O)N[C@@H]([C@@H](C)O)C(=O)N[C@H](CCN)C(=O)N[C@@H](CCCCN)C(=O)N[C@@H](CCN)C(=O)N[C@@H](CCN)C(=O)N[C@H](C(=O)N[C@@H](Cc2ccc(O)cc2)C(=O)O)CSSC1(C)C [Example 20, Val-Hyp-Ile-Pen-Tyr-Ser-Ala-Arg-Dab-Thr-^DDab-Lys-Dab-Dab-Cys-Tyr] (H-V[Hyp]I[Pen]YSAR[Dab]T[dDab]K[Dab][Dab]CY-OH; disulfide 4-15) | <1 | 0.5 | 1 | 0.5
CC[C@H](C)[C@@H]1NC(=O)[C@H](CO)NC(=O)[C@H](Cc2ccc(O)cc2)NC(=O)[C@@H](NC(=O)[C@@H](NC(=O)[C@@H]2C[C@@H](O)CN2C(=O)[C@@H](N)C(C)C)[C@@H](C)CC)C(C)(C)SSC[C@@H](C(=O)N[C@@H](Cc2ccc(O)cc2)C(=O)O)NC(=O)[C@H](CCN)NC(=O)[C@H](CCN)NC(=O)[C@H](CCCCN)NC(=O)[C@@H](CCN)NC(=O)[C@H]([C@@H](C)O)NC(=O)[C@H](CCN)NC(=O)[C@H](CCCNC(=N)N)NC1=O [Example 21, Val-Hyp-Ile-Pen-Tyr-Ser-Ile-Arg-Dab-Thr-^DDab-Lys-Dab-Dab-Cys-Tyr] (H-V[Hyp]I[Pen]YSIR[Dab]T[dDab]K[Dab][Dab]CY-OH; disulfide 4-15) | <1 | 0.0625 | 0.125 | 0.0625
CC[C@H](C)[C@H](NC(=O)[C@@H]1C[C@@H](O)CN1C(=O)[C@@H](N)C(C)C)C(=O)N[C@@H]1C(=O)N[C@@H](Cc2ccc(O)cc2)C(=O)N[C@@H](CO)C(=O)N[C@@H](CCC(=O)O)C(=O)N[C@@H](CCCNC(=N)N)C(=O)N[C@@H](CCN)C(=O)N[C@@H]([C@@H](C)O)C(=O)N[C@H](CCN)C(=O)N[C@@H](CCCCN)C(=O)N[C@@H](CCN)C(=O)N[C@@H](CCN)C(=O)N[C@H](C(=O)N[C@@H](Cc2ccc(O)cc2)C(=O)O)CSSC1(C)C [Example 22, Val-Hyp-Ile-Pen-Tyr-Ser-Glu-Arg-Dab-Thr-^DDab-Lys-Dab-Dab-Cys-Tyr] (H-V[Hyp]I[Pen]YSER[Dab]T[dDab]K[Dab][Dab]CY-OH; disulfide 4-15) | <1 | 0.5 | 0.5 | 0.25
